Experimental data as given in patent US20070244103A1, “Novel Compounds Having an Anti-Bacterial Activity” (Morphochem Aktiengesellschaft Fur Kombinatorische Chemie, priority 2004, published 2007).

Assay: MIC of the examples against various organisms
Format: cell-based
Details: against at least two of the above organisms (12-strain panel)
Experimental: The MIC (μg/ml) of the examples against various organisms was determined: A. baumannii ATCC19606, E. cloacae ATCC23355, E. coli ATCC25922, K. pneumoniae ATCC27736, P. mirabilis ATCC29906, P. aeruginosa ATCC27853, S. maltophilia ATCC13637, S. aureus ATCC43300, S. epidermidis ATCC14990, S. haemolyticus ATCC29970, E. faecalis ATCC29212 and E. faecium ATC19434.

Row | SMILES | MIC
1 | COc1ccc2ncc(Cl)c(C(O)CN3CCOC(CNCc4ccc5c(c4)NC(=O)CS5)C3)c2c1 (single isomer, unassigned) [Example 76, 6-[({4-[2-(3-Chloro-6-methoxy-quinolin-4-yl)-2-hydroxy-ethyl]-morpholin-2-ylmethyl}-amino)-methyl]-4H-benzo[1,4]thiazin-3-one] | ≤ 2 µg/mL
2 | COc1cnc2cccc(C(O)CN3CCCC(CNCc4ccc5c(c4)NC(=O)CO5)C3)c2c1 (single isomer, unassigned) [Example 45, 6-[({1-[2-Hydroxy-2-(3-methoxy-quinolin-5-yl)-ethyl]-piperidin-3-ylmethyl}-amino)-methyl]-4H-benzo[1,4]oxazin-3-one] | ≤ 2 µg/mL
3 | COc1cnc2cccc(C(O)CN3C4CCC3CC(NCc3ccc5nsnc5c3)C4)c2n1 (stereo not shown) [Example 82, 2-{3-[(Benzo[1,2,5]thiadiazol-5-ylmethyl)-amino]-8-aza-bicyclo[3.2.1]oct-8-yl}-1-(3-methoxy-quinoxalin-5-yl)-ethanol] | ≤ 2 µg/mL
4 | COc1cnc2cccc(C(O)CN3CCCC(CNCc4cc5c(cc4F)SCC(=O)N5)C3)c2n1 (stereo not shown) [Example 89, 7-Fluoro-6-[({1-[2-hydroxy-2-(3-methoxy-quinoxalin-5-yl)-ethyl]-piperidin-3-ylmethyl}-amino)-methyl]-4H-benzo[1,4]thiazin-3-one] | ≤ 2 µg/mL
5 | COc1ccc2nccc(C(O)CN3C4CCC3CC(NCc3ccc5c(c3)NC(=O)CO5)C4)c2n1 (single isomer, unassigned) [Example 8, 6-({8-[2-Hydroxy-2-(6-methoxy-[1,5]-naphthyridin-4-yl)-ethyl]-8-aza-bicyclo[3.2.1]oct-3-ylamino}-methyl)-4H-benzo[1,4]oxazin-3-one] | ≤ 2 µg/mL
6 | COc1ccc2ncc(Cl)c(C(O)CN3C4CCC3CC(NCc3ccc5c(c3)OCCO5)C4)c2n1 (stereo not shown) [Example 25, 1-(3-Chloro-6-methoxy-[1,5]-naphthyridin-4-yl)-2-{3-[(2,3-dihydro-benzo[1,4]dioxin-6-ylmethyl)-amino]-8-aza-bicyclo[3.2.1]oct-8-yl}-ethanol] | ≤ 2 µg/mL
7 | COc1cnc2cccc(C(O)CN3CCCC(CNCc4ccc5c(c4)OCO5)C3)c2c1 (single isomer, unassigned) [Example 44, 2-(3-{[(Benzo[1,3]dioxol-5-ylmethyl)-amino]-methyl}-piperidin-1-yl)-1-(3-methoxy-quinolin-5-yl)-ethanol] | ≤ 2 µg/mL
8 | COc1ccc2nccc(C(O)CN3CCCC(CNC/C=C/c4ccccc4)C3)c2n1 (single isomer, unassigned) [Example 7, 1-(6-Methoxy-[1,5]-naphthyridin-4-yl)-2-{3-[((E)-3-phenyl-allylamino)-methyl]-piperidin-1-yl}-ethanol] | ≤ 2 µg/mL
9 | COc1ccc2ncc(Cl)c(C(O)CN3CCCC(CNCc4ccc5c(c4)OCO5)C3)c2c1 (single isomer, unassigned) [Example 65, 2-(3-{[(Benzo[1,3]dioxol-5-ylmethyl)-amino]-methyl}-piperidin-1-yl)-1-(3-chloro-6-methoxy-quinolin-4-yl)-ethanol] | ≤ 2 µg/mL
10 | COc1ccc2nccc(NC(=O)C3CCCC(CNCc4ccc5c(c4)NC(=O)CO5)C3)c2n1 (stereo not shown) [Example 15, 3-{[(3-Oxo-3,4-dihydro-2H-benzo[1,4]oxazin-6-ylmethyl)-amino]-methyl}-cyclohexanecarboxylic acid (6-methoxy-[1,5]-naphthyridin-4-yl)-amide] | ≤ 2 µg/mL
11 | COc1ccc2ncc(Cl)c(C(O)CN3CCCC(CNC/C=C/c4ccccc4)C3)c2c1 (single isomer, unassigned) [Example 69, 1-(3-Chloro-6-methoxy-quinolin-4-yl)-2-{3-[((E)-3-phenyl-allylamino)-methyl]-piperidin-1-yl}-ethanol] | ≤ 2 µg/mL
12 | COc1ccc2nccc(C(O)CN3CCCC(CNCc4ccc5c(c4)NC(=O)CS5)C3)c2n1 (single isomer, unassigned) [Example 6, 6-[({1-[2-Hydroxy-2-(6-methoxy-[1,5]-naphthyridin-4-yl)-ethyl]-piperidin-3-ylmethyl}-amino)-methyl]-4H-benzo[1,4]thiazin-3-one] | ≤ 2 µg/mL
13 | COc1cnc2cccc(NC(=O)C3CCCC(CNCc4cc5c(cn4)OCCO5)C3)c2n1 (stereo not shown) [Example 107, 3-{[(2,3-Dihydro-[1,4]dioxino[2,3-c]pyridin-7-ylmethyl)-amino]-methyl}-cyclohexanecarboxylic acid (3-methoxy-quinoxalin-5-yl)-amide] | ≤ 2 µg/mL
14 | COc1ccc2ncc(Cl)c(C(O)CN3CCCC(CNCc4ccc5c(c4)NC(=O)CS5)C3)c2c1 (single isomer, unassigned) [Example 68, 6-[({1-[2-(3-Chloro-6-methoxy-quinolin-4-yl)-2-hydroxy-ethyl]-piperidin-3-ylmethyl}-amino)-methyl]-4H-benzo[1,4]thiazin-3-one] | ≤ 2 µg/mL
15 | COc1ccc2ncc(Cl)c(C(O)CN3CCOC(CNCc4ccc5c(c4)OCCO5)C3)c2c1 (single isomer, unassigned) [Example 73, 1-(3-Chloro-6-methoxy-quinolin-4-yl)-2-(2-{[(2,3-dihydro-benzo[1,4]dioxin-6-ylmethyl)-amino]-methyl}-morpholin-4-yl)-ethanol] | ≤ 2 µg/mL
16 | COc1ccc2ncc(Cl)c(C(O)CN3CCOC(CNCc4ccc5nsnc5c4)C3)c2c1 (single isomer, unassigned) [Example 74, 2-(2-{[(Benzo[1,2,5]thiadiazol-5-ylmethyl)-amino]-methyl}-morpholin-4-yl)-1-(3-chloro-6-methoxy-quinolin-4-yl)-ethanol] | ≤ 2 µg/mL
17 | COc1cnc2ccc(Cl)c(C(O)CN3CCCC(CNCc4ccc5c(c4)OCCO5)C3)c2n1 (stereo not shown) [Example 95, 1-(6-Chloro-3-methoxy-quinoxalin-5-yl)-2-(3-{[(2,3-dihydro-benzo[1,4]dioxin-6-ylmethyl)-amino]-methyl}-piperidin-1-yl)-ethanol] | ≤ 2 µg/mL
18 | COc1ccc2ncc(Cl)c(C(O)CN3CCOC(CNCc4ccc5c(c4)NC(=O)CO5)C3)c2c1 (single isomer, unassigned) [Example 71, 6-[({4-[2-(3-Chloro-6-methoxy-quinolin-4-yl)-2-hydroxy-ethyl]-morpholin-2-ylmethyl}-amino)-methyl]-4H-benzo[1,4]oxazin-3-one] | ≤ 2 µg/mL
19 | COc1cnc2cccc(C(O)CN3CCCC(CNCc4ccc5c(n4)NC(=O)CS5)C3)c2c1 (single isomer, unassigned) [Example 42, 6-[({1-[2-Hydroxy-2-(3-methoxy-quinolin-5-yl)-ethyl]-piperidin-3-ylmethyl}-amino)-methyl]-4H-pyrido[3,2-b][1,4]thiazin-3-one] | ≤ 2 µg/mL
20 | COc1cnc2ccc(Cl)c(C(O)CN3CCCC(CNC/C=C/c4ccccc4)C3)c2n1 (stereo not shown) [Example 99, 1-(6-Chloro-3-methoxy-quinoxalin-5-yl)-2-{3-[((E)-3-phenyl-allylamino)-methyl]-piperidin-1-yl}-ethanol] | ≤ 2 µg/mL
21 | COc1cnc2cccc(C(O)CN3CCCC(CNCc4cc5c(cn4)OCCO5)C3)c2n1 (stereo not shown) [Example 88, 2-(3-{[(2,3-Dihydro-[1,4]dioxino[2,3-c]pyridin-7-ylmethyl)-amino]-methyl}-piperidin-1-yl)-1-(3-methoxyquinoxalin-5-yl)-ethanol] | ≤ 2 µg/mL
22 | COc1ccc2nccc(C(O)CN3CCOC(CNCc4ccc5c(c4)OCCO5)C3)c2n1 (stereo not shown) [Example 31, 2-(2-{[(2,3-Dihydro-benzo[1,4]dioxin-6-ylmethyl)-amino]-methyl}-morpholin-4-yl)-1-(6-methoxy-[1,5]naphthyridin-4-yl)-ethanol] | ≤ 2 µg/mL
